Ends that are not written are not given here.
Key:
patients with BPH = test: Clinical trial in men with BPH: International Prostate Symptom Score (IPSS) change from baseline; assay type: in vivo, human; conditions: oral medication together with placebo PBS injection, >2 years after treatment
Procedure: Clinical trials were conducted on numerous individuals having BPH. All protocols were done in accordance with applicable regulations, and carried out by physicians.
In a study of 978 men, patients with BPH were first administered a course of antibiotics for a period of 2-4 weeks, and then given an intraprostatic injection of either a) 10 ml of FT in phosphate buffered saline (concentration of 0.25 mg/ml), pH 7.2 (“PBS”) or b) PBS alone, under double-blind conditions by a urologist in an office setting under ultrasound guidance. Each patient was followed for a number of years with regular physical examinations, laboratory tests, and evaluations of symptoms. Symptomatic evaluation was measured by the International Prostate Symptom Score (IPSS) which is a quantitative scale used to gauge prostatic symptomatic improvement or worsening. The IPSS quantifies the following: 1) incomplete bladder emptying after urination; 2) frequent urination; 3) stopping and starting during urination; 4) urgent need to urinate; 5) weakness of urinary stream; 6) need to push or strain during urination; 7) need to urinate after going to sleep at night (nocturia). […]
Using the results from the above tables, the average mean IPSS improvement of the respective medications, or combinations of medications can be determined, as well as the percent improvement in mean IPSS when compared to the average of the actives. […]

[1] = tested on: benign prostatic hyperplasia; conditions: McConnell et al.; cited from earlier work
5α-reductase = conditions: blood; cited from earlier work
BPH patients = conditions: CombAT trial, after 2 years; cited from earlier work
[2] = tested on: α1- than α2-adrenergic receptors; conditions: α1 versus α2 selectivity; cited from earlier work
[3] = tested on: prostate glandular epithelial cells; test: Tissue culture genetic array, in vitro pathway activation; assay type: cell-based
Source text: FT is a new molecular entity which in vitro stimulates caspase pathways (activation of caspases 7, 8, and 10, caspase recruitment domains 6, 11, and 14, and DIABLO), tumor necrosis factor pathways (activation of TNF1, TNFSF6, TNFSF8, TNFSF9, CD70 ligands, and TNFRSF19L, TNFRSF25, TRAF2, TRAF3, TRAF4, TRAF6 receptors), and BCL pathways (activation of BIK, HRK, BCL2L10 and BCL3) in prostate glandular epithelial cells, based on tissue culture genetic array data. FT selectively causes loss of cell membrane integrity, mitochondrial metabolic arrest, depletion of RNA, DNA lysis and aggregation, and cell fragmentation and cell loss. The apoptotic process leads to typical ultrastructural progressive changes of membranous disruption and swelling, progressively deepening nuclear invaginations with eventual membranous bleb formations and cell death and fragmentation into apoptotic bodies. Histologically, typical apoptotic changes with positive immunohistochemical staining of markers for apoptosis are found throughout the injected areas for up to several weeks after treatment.

Compound: CN1CC(=O)N2[C@H](c3ccc4c(c3)OCO4)c3[nH]c4ccccc4c3C[C@@H]2C1=O [PDE5 Inhibitor, tadalafil]
- Mean IPSS Improvement, oral meds alone (patients with BPH): 4.67

Compound: COc1cc2nc(N3CCN(C(=O)C4COc5ccccc5O4)CC3)nc(N)c2cc1OC (centres unmarked) [doxazosin, 1-(4-amino-6,7-dimethoxy-2-quinazolinyl)-4-[(2,3-dihydro-1,4-benzodioxin-2-yl)carbonyl]piperazine]
- long term (4 year) mean IPSS improvement [1]: 6.6

Compound: C[C@]12C=CC(=O)N[C@@H]1CC[C@@H]1[C@@H]2CC[C@]2(C)[C@@H](C(=O)Nc3cc(C(F)(F)F)ccc3C(F)(F)F)CC[C@@H]12 [dutasteride, 17β-N-(2,5-bis(Trifluoromethyl))phenylcarbamoyl-4-aza-5α-androst-1-en-3-one]
- reduction in circulating DHT levels (5α-reductase): up to 98%
- mean decrease in IPSS from baseline (BPH patients): 4.9

Compound: CC(C)(C)NC(=O)[C@H]1CC[C@H]2[C@@H]3CC[C@H]4NC(=O)C=C[C@]4(C)[C@H]3CC[C@]12C [finasteride]
- reduction in circulating DHT levels (5α-reductase): 65 to 70%
- long term (4 year) mean IPSS improvement [1]: 5.6

Compound: Cc1ccc(N(CC2=NCCN2)c2cccc(O)c2)cc1 [phentolamine]
- potency in inhibiting α1- than α2-adrenergic receptors [2]: three to five times more potent

Compound: CCOc1ccccc1OCCN[C@H](C)Cc1ccc(OC)c(S(N)(=O)=O)c1 [tamsulosin, (R)-5-(2-{[2-(2-Ethoxyphenoxy)ethyl]amino}propyl)-2-methoxybenzene-1-sulfonamide]
- mean decrease in IPSS from baseline (BPH patients): 4.3

Compound: Ile-Asp-Gln-Gln-Val-Leu-Ser-Arg-lle-Lys-Leu-Glu-lle-Lys-Arg-Cys-Leu (IDQQVLSRIKLEIKRCL; also: trifluoroacetate salt) [FT, 1: …]
- BCL pathways (BIK, HRK, BCL2L10, BCL3) [3]: stimulates
- caspase pathways (caspases 7, 8, 10, caspase recruitment domains 6, 11, 14, DIABLO) [3]: stimulates
- tumor necrosis factor pathways (TNF1, TNFSF6, TNFSF8, TNFSF9, CD70 ligands, TNFRSF19L, TNFRSF25, TRAF2, TRAF3, TRAF4, TRAF6 receptors) [3]: stimulates

Source: patent US20240252516A1, “COMBINATION BPH THERAPY WITH FEXAPOTIDE TRIFLUTATE, A 5-ARI, AND AN ALPHA BLOCKER” (Nymox Corporation, priority 2023, published 2024)
